The numbers were not newly measured in publication PMC5680437 (Journal of Clinical & Translational Endocrinology, 2015), which cites them from elsewhere.

The conditions of data set [1]: subcutaneous; ref Morrow et al. [18].
Another data set has as its system healthy volunteers. The conditions noted are these: ref Arnolds et al. [19].
For data set [2] the following is noted: 0.2 U/kg dose; ref Heise et al. [20].

For insulin aspart, in data set [1], the “Time to 50% of maximal concentration within the first hour” value was 32 min. The “AUC for glucose infusion rate (to maintain euglycemia)” value in the data set with healthy volunteers is 16 mg/kg.
Consider insulin glulisine, for which, in data set [1], the “Time to 50% of maximal concentration within the first hour” value was 21 min. Moreover, the “AUC for glucose infusion rate (to maintain euglycemia)” value with healthy volunteers is 30 mg/kg. Besides, the “AUC for the glucose infusion rate in the first hour” value in data set [2] is recorded as 102.3 mg/kg.
For the substance insulin lispro, in data set [1], the “Time to 50% of maximal concentration within the first hour” value is 31 min. The “AUC for the glucose infusion rate in the first hour” value in data set [2] is given as 83.1 mg/kg.
